Values quoted from earlier work in the CATMoS acute toxicity set (Mansouri et al. 2021).
Values joined by “and” are separate entries in the source; they are usually repeats but may differ in a detail not shown here. Equal entries are not always repeated.

Experiment: rat acute oral toxicity
Settings: in vivo
Description: […]The data set underlying the modeling effort for this project was initially compiled by NICEATM and U.S. EPA’s CCTE. Briefly, LD50 data were collected from rat acute oral systemic toxicity tests, including limit tests, ranges/confidence intervals, and discrete LD50 values. The full data set included 21,200 LD50 entries for 15,688 substances. […] Data were reviewed to ensure that LD50 values with obvious errors in the extracted data such as unit conversion errors (e.g., comma and decimal separator misplacements) were either fixed or removed. After this review, 16,209 LD50 values remained. Many of the chemicals represented had multiple LD50 entries, requiring that a single representative value per Chemical Abstracts Service Registry Number (CASRN) identifier be defined to facilitate modeling efforts. Based on ATWG feedback and to define the representative LD50 as a protective value while accounting for the distribution across multiple LD50s, the median of the lowest quartile was computed using only discrete LD50 values (omitting limit test data and range and confidence interval data). A detailed summary of the data compilation is available online on the NICEATM webpage dedicated to the collaborative modeling project (NTP 2020).
[…][…] For categorical designations, limit test and range/confidence interval LD50 data were integrated wherever possible. As such, the number of chemicals with end point values/calls varies across the modeling end points (Table 3) based on whether chemicals had representative LD50 values and/or other data. If a chemical had both, the representative value was used to determine categorical calls rather than limit test data. Some data were useable only for certain end points and categories depending on the thresholds. For example, ranges that spanned multiple hazard categories were considered only for the binary (very toxic/nontoxic) end points and omitted from rendering a determination for hazard category assignment.
[…]The final data set comprising 11,992 chemicals was split into training and evaluation sets […], respectively. This process was performed semirandomly by ordering chemicals based on the five end points (categorical and continuous LD50 values) and partitioning every fourth record into the evaluation set accordingly. This approach was taken to ensure an equivalent distribution of the LD50 values and the different hazard categories between the training and the evaluation sets without supervised sampling of the chemicals based on structures (Figure 1A). The sources of the chemical structures were also kept equivalent between the two sets, with chemical structures obtained from DSSTox, being the highest quality, representing over 75% of each set (Figure 1B).

Compound | LD50
CN1C(=O)CN=C(c2ccccc2F)c2cc(Cl)ccc21 | 1740 mg/kg
Nc1cc(Cl)ccc1Cl | 1600 mg/kg
O=C=Nc1ccc(Cc2ccc(N=C=O)cc2N=C=O)cc1 | 20000 mg/kg
COc1ccc2c(c1)c(CC(=O)NO)c(C)n2C(=O)c1ccc(Cl)cc1 | 78 mg/kg
O=NN1CCN(N=O)CC1 | 160 mg/kg
CC(C)NCC(O)c1ccc(NS(C)(=O)=O)cc1 (centres undefined) | 3450 mg/kg
CN1CCC[C@@H]1CCO[C@](C)(c1ccccc1)c1ccc(Cl)cc1 | 3550 mg/kg
Cn1c(=O)c2c(ncn2CCCN2CCN(CCCSc3ccccc3)CC2)n(C)c1=O | 1600 mg/kg
CC(C)(Oc1ccc(Cl)cc1)C(=O)O | 897 mg/kg
Nc1cc2c(S(=O)(=O)O)cc(S(=O)(=O)O)cc2cc1S(=O)(=O)O | 13000 mg/kg
CC1=CCC2CC1(S)C2(C)C (centres undefined) | 3000 mg/kg
Nc1ccc(Cl)cc1[N+](=O)[O-] | 400 mg/kg
CC(C)[C@@]1(NC(=O)[C@@H]2C[C@@H]3c4cccc5[nH]cc(c45)C[C@H]3N(C)C2)O[C@@]2(O)[C@@H]3CCCN3C(=O)[C@H](Cc3ccccc3)N2C1=O | 2640 mg/kg
CC(Cl)(Cl)[N+](=O)[O-] | 410 mg/kg
CC(=O)Oc1ccc(C)cc1 | 1900 mg/kg
C=C[Si](Cl)(Cl)CC | 2830 mg/kg
O=[N+]([O-])c1ccccc1C1OCC(CCl)O1 (centres undefined) | 65 mg/kg
CC(C(=O)O)c1ccc(-n2cc3ccccc3n2)cc1 (centres undefined) | 1550 mg/kg
CC1(C)Cc2cccc(OC(=O)NCSc3ccc(C(C)(C)C)cc3)c2O1 | 125 mg/kg
CC1=COC(C)(C=O)CC1 (centres undefined) | 2460 mg/kg
Cc1cc(O)cc(C)c1Cl | 3830 mg/kg
BrC/C=C/CBr | 62 mg/kg
C=CCc1ccc(O)c(OC)c1 | 1930 mg/kg
COC(=O)c1c(Cl)c(Cl)c(C(=O)N(C)OC)c(Cl)c1Cl | 1170 mg/kg
Oc1ccc(C(O)CNCCCCCCNCC(O)c2ccc(O)c(O)c2)cc1O (centres undefined) | 10000 mg/kg

Compound | LD50
Clc1ccc2ocnc2c1 | 650 mg/kg
CCOC(=O)Nc1ccc(NC(Cc2ccccc2)c2ccccc2)nc1N (centres undefined) | 163 mg/kg
CCC1(C)CC(=O)NC1=O (centres undefined) | 1820 mg/kg
CCCCCCC[N+](CC)(CC)CCCCc1ccc(Cl)cc1 | 456 mg/kg
CCCCNC(N)=O | 1260 mg/kg
C=CCNC(=O)ON=C1SCOC1C (centres undefined) | 453 mg/kg
CNC(=O)Oc1ccccc1C1OCCO1 | 25 mg/kg
O=C(Nc1nc(-c2ccccc2)cs1)OCC(Cl)(Cl)Cl | 550 mg/kg
CC(C)(C)C(=O)OCOC(=O)[C@@H]1N2C(=O)[C@@H](N=CN3CCCCCC3)[C@H]2SC1(C)C | 9500 mg/kg
CC(C)c1ccc(NC(=O)N(C)C)cc1 | 1830 mg/kg
CCOP(=S)(OCC)SC(CC(=O)OCSC)C(=O)OCSC (centres undefined) | 3.7 mg/kg
Cc1ccn(C(=O)NCCCCNC(=O)n2ccc(C)n2)n1 | 4600 mg/kg
C(=N\C(/N=C/c1ccco1)c1ccco1)/c1ccco1 | 400 mg/kg
CC(CN)CCCN (centres undefined) | 1690 mg/kg
Cc1nc(NCc2ccccc2)c2cc[nH]c2n1 | 80 mg/kg
COP(=O)(NC(=O)CCCCl)SC (centres undefined) | 3 mg/kg
CC(=O)CC(=O)Nc1ccc(C)cc1C | 3000 mg/kg
COC(=O)C(c1ccccc1Cl)N1CCc2sccc2C1 (centres undefined) | 1910 mg/kg
CN(C)C(=O)COC(=O)Cc1ccc(OC(=O)c2ccc(NC(=N)N)cc2)cc1 | 3000 mg/kg
CCN(CCCCCCOC(=O)c1ccc(OC)c(OC)c1)C1CCc2cc(OC)c(OC)cc2C1 (centres undefined) | 561 mg/kg
O=C(NNCc1ccccc1)c1ccccn1 | 240 mg/kg
O=NN(CCCC(F)(F)F)CCCC(F)(F)F | 750 mg/kg
O=[N+]([O-])c1ccc(OP(=O)(OCCCl)OCCCl)cc1 | 37 mg/kg
CCO[Si](C)(CCCCN)OCC | 6500 mg/kg
C1CCc2c(OCCN3CCOCC3)n[nH]c2C1 | 1600 mg/kg

Compound | LD50
CC(=O)OC(C)CC(C)C (centres undefined) | 6160 mg/kg
CN1CCC(OC(=O)COc2ccc(Cc3ccc(Cl)cc3)cc2)CC1 | 1900 mg/kg
Nc1cc(S(=O)(=O)O)cc2cc(S(=O)(=O)O)c(/N=N\c3ccc(-c4ccc(/N=N/c5c(S(=O)(=O)O)cc6cc(S(=O)(=O)O)cc(N)c6c5O)cc4)cc3)c(O)c12 | 8760 mg/kg
Cc1cccc(C(=O)c2ccccc2)c1C | 4920 mg/kg
COP(=O)(OC)SCN1C(=O)c2ccccc2C1=O | 50 mg/kg
O=C1CCCCC(=O)N1 | 22600 mg/kg
CNCC1CCCCC1 | 1410 mg/kg
N=C(NN=Cc1ccc(Cl)cc1)NN=Cc1ccc(Cl)cc1 | 1350 mg/kg
CCOC(=S)C=Cc1cc(OC)c(OC)c(OC)c1 | 1000 mg/kg
CCOCCC(OCC)OCC | 1600 mg/kg
CC[C@H]1C[C@H]2[C@@H]3CCC4=CC(=O)CC[C@@H]4[C@H]3CC[C@]2(C)[C@H]1O | 12100 mg/kg
Cc1ccc2c(c1)[C@]13CCCC[C@@H]1[C@H](C2)N(C)CC3 | 690 mg/kg
Nc1ccc(-c2ccccc2N)cc1 | 311 mg/kg
CCC1(c2ccccc2)CCC(=O)NC1=O (centres undefined) | 600 mg/kg
c1ccc([Si]23OCCN(CCO2)CCO3)cc1 | 1.48 mg/kg
CCOC(C1=NCC(C)(C)CN1)c1ccccc1Cl (centres undefined) | 310 mg/kg
CCOC(C1=NCC(CC)(CC)CN1)c1ccccc1 (centres undefined) | 250 mg/kg
CC(C)(C)NCC(O)CSc1nc(-c2ccc(C(N)=O)s2)cs1 (centres undefined) | 86 mg/kg
O=C(O)C1C(C(=O)O)C2(Cl)C(Cl)=C(Cl)C1(Cl)C2(Cl)Cl (centres undefined) | 1770 mg/kg
Nc1nc(N)nc(NC2CC2)n1 | 3390 mg/kg
CC(C)CC(C)OC(=O)CC(C(=O)OC(C)CC(C)C)S(=O)(=O)O (centres undefined) | 1750 mg/kg
C#CCN1CCC2=C(C1)c1c(O)cc(C(C)C(C)CCCCC)cc1OC2(C)C (centres undefined) | 900 mg/kg
CCOC(=O)C1=C(C)NC(C)=C(C(=O)OCC)C1c1ccccc1C(F)(F)F | 1220 mg/kg
C=COCCSCCCC | 2830 mg/kg
CN1CCC(=C2c3ccccc3CCc3sccc32)CC1 | 410 mg/kg

Compound | LD50
COCCOC(=O)C1=C(C)NC(C)=C(C(=O)OC/C=C/c2ccccc2)C1c1cccc([N+](=O)[O-])c1 (centres undefined) | 4410 mg/kg
CCCCCCCCC[N+]1(C)[C@H]2CC(OC(=O)C(CO)c3ccccc3)C[C@H]1[C@H]1O[C@H]12 (some centres undefined) | 1300 mg/kg
CC1(COCC2(C)CO2)CO1 (centres undefined) | 1680 mg/kg
CN1CCCN=C1COC(=O)C(O)(c1ccccc1)C1CCCCC1 (centres undefined) | 1370 mg/kg
Cc1ccc(C)c(N)c1 | 1300 mg/kg
O=S(=O)(SC(Cl)(Cl)Cl)C(Cl)Cl | 3620 mg/kg
CCOC(=O)C1=CN(CC)C2CCCC(C)N2C1=O (centres undefined) | 746 mg/kg
O=c1c2ccccc2n(-c2cccc(C(F)(F)F)c2)c(=O)n1CCO | 810 mg/kg
CC(O)C1Sc2ccccc2N(CCCN(C)C)C1c1ccccc1 (centres undefined) | 800 mg/kg
C/C=C1/C[C@@H](C)[C@](O)(CO)C(=O)OCC2=CC[N+]3([O-])CC[C@@H](OC1=O)[C@@H]23 (some centres undefined) | 48 mg/kg
CC(C)(c1ccc(O)cc1)c1ccc(O)cc1 | 1000 mg/kg
CC(OCCCl)OCCCl | 310 mg/kg
Nc1ncnc2c1ccn2C1OC(CO)C(O)C1O (centres undefined) | 16 mg/kg
CC(C)(C)C(=O)CCl | 550 mg/kg
C/C(=C1\CCOC(=O)S1)N(C=O)Cc1cnc(C)nc1N | 7600 mg/kg
O=C(C=Cc1ccccc1O)OC(=O)C=Cc1ccccc1O | 1510 mg/kg
CC(C)OC(=O)C=CC(=O)OC(C)C | 2140 mg/kg and 3250 mg/kg
CC(C)CCCCCOC(=O)COc1ccc(Cl)cc1Cl | 982 mg/kg
CCOCCc1ccc(OCCN=c2[nH]cnc(CC)c2Cl)c(C)c1C | 115 mg/kg
OC1CC2CC1C1CC=CC21 (centres undefined) | 3200 mg/kg
O=C(Nc1ccc(Br)cc1)c1cc(Br)cc(Br)c1O | 410 mg/kg
Cc1cc(Cl)ccc1N | 1060 mg/kg
Cc1cc(OC(=O)N(C)C)n(-c2ccccc2)n1 | 62 mg/kg
Cc1ccc2sc(C)nc2c1 | 957 mg/kg
